Columns and labels:
[1] = test system: K562 cells expressing NR1-reactive antibodies on their surface; experiment: Interferon-γ release on co-culture with K562 cells expressing surface NR1-reactive antibodies; assay type: cell-based; conditions: 50,000 T-cells co-cultured 1:1 with K562 cells, 48 hours
Protocol: 50,000 CAAR T-cells were co-cultured 1:1 with K562 cells expressing NR1-reactive or control antibodies on their surface for 48 hours.

[2] = test system: K562 cells expressing surface NR1-reactive antibodies; experiment: Cell lysis of K562 target cells (7-AAD, flow cytometry); assay type: cell-based; conditions: E:T ratios 30:1 to 1:1, 4 hours
Protocol: For quantification of cell killing, target cells were incubated with CAAR T-cells at different Effector: Target (E:T) ratios ranging from 30:1 to 1:1 for 4 hours. Dead cells were stained by 7-AAD and analyzed by flow cytometry.
Target K562 cells were incubated with CAAR T-cells at different Effector:Target (E:T) ratios ranging from 30:1 to 1:1.

[3] = test system: Nalm6 target cells expressing NR1-reactive antibody #003-102; experiment: Luciferase-assay of specific lysis of Nalm6 target cells, with or without Dasatinib; assay type: cell-based
Protocol: For quantification of cell killing, Nalm6 target cells expressing NR1-reactive antibody #003-102 were incubated with CAAR T-cells at different Effector:Target (E:T) ratios ranging from 1:2 to 8:1 for 18 hours. Percentage of specific lysis was determined by reduction of bioluminescence in a Luciferase-assay.
Results are depicted in FIG. 10.

[4] = test system: Nalm6 cells with surface-presentation of NR1 autoantibody #003-102; experiment: In vivo bioluminescence imaging of Nalm6 burden in mice; conditions: bioluminescence on day 9 (4 days post-treatment); preliminary data
Protocol: Nalm6 cells with surface-presentation of NR1 autoantibody and expressing a Luciferase enzyme (e.g. firefly-Luciferase) tagged with a fluorescent protein (e.g. GFP), are injected on day 1 into mice. On day 5, therapeutic CAAR-T cells expressing a CAAR of the present invention or control T cells without CAAR expression are injected. Bioluminescence imaging is conducted regularly, for example at time points 1, 5, 8, 12, 15, 19 and 22 days, to assess therapeutic effect against the Nalm6 cells. […]
In order to show therapeutic efficacy in an animal model in vivo, Nalm6 cells with surface-presentation of NR1 autoantibody #003-102 or #008-218 and expressing the Luciferase enzyme firefly-Luciferase (ffluc) tagged with a fluorescent protein (GFP, green fluorescent protein), were injected on day 1 into 16 mice. […] As a read-out of the assay, animal survival, target cell reduction (via in vivo bioluminescence measurements) and serum antibody levels are determined. […]
The potential readouts for the assay relate to bioluminescence imaging quantification (for the detection of in vivo killing), quantification of anti-NR1 serum levels by ELISA (for the detection of reduction of circulating antibodies), and postmortem analysis of treated animals (in order to determine off-target toxicity). […]

“ATD-S1-S2-CAAR: T cells transduced with CAAR: CD8 leader/NMDAR ATD-S1-Linker1-S2/Linker2/CD8a TM/CD137 co-stim/CD3z signaling” was tested, and the “release of interferon-γ” value [1] was “massively released”, the “killing of K562 cells expressing surface NR1-reactive antibodies” value [2] was “dose-dependent killing” and the “inactivation of CAAR T cells by Dasatinib” value ([3]; Dasatinib (safety strategy)) was “temporarily halted”. For the same substance, the “killing of Nalm6 target cells” value ([3]; E:T ratios 1:2 to 8:1, 18 hours) was “dose-dependent killing” and the “animals with drastic reduction of Nalm6 burden” value [4] was 5/6.

From patent publication US12617835B2, “Chimeric autoantibody receptor (CAAR) that binds autoantibodies targeting the central nervous system in neurological autoimmune disease” (Deutsches Zentrum für Neurodegenerative Erkrankungen e. V. …, priority 2019, dated 2026)
